Assay results: US8436011B2, “Pyridinopyridinone derivatives, preparation thereof and therapeutic use thereof” (Sanofi, priority 2008, dated 2013)
Where two headings read alike, the source gives them in different places.

Columns and labels:
[1] = target: T1, FLT3 receptor (MV4-11 cell line bearing an FLT3ITD mutant) (Homo sapiens, UniProt P36888, INS600HVDFREYEYD); assay: Inhibition of FLT3 receptor tyrosine kinase activity: proliferation of MV4-11 cells (CellTiter-Glo, 72 h); format: cell-based; settings: 72 hours incubation, read-out: IC50 (concentration that inhibits 50% of the proliferation of the MV4-11 cells)
T1 construct: MV4-11 cell line, which line is established from a leukaemia of constitutively active AML type bearing an FLT3ITD mutant; endogenous in cells; host or cells: MV4-11
T1 sequence (P36888 with tags, fused parts or gaps INS600HVDFREYEYD): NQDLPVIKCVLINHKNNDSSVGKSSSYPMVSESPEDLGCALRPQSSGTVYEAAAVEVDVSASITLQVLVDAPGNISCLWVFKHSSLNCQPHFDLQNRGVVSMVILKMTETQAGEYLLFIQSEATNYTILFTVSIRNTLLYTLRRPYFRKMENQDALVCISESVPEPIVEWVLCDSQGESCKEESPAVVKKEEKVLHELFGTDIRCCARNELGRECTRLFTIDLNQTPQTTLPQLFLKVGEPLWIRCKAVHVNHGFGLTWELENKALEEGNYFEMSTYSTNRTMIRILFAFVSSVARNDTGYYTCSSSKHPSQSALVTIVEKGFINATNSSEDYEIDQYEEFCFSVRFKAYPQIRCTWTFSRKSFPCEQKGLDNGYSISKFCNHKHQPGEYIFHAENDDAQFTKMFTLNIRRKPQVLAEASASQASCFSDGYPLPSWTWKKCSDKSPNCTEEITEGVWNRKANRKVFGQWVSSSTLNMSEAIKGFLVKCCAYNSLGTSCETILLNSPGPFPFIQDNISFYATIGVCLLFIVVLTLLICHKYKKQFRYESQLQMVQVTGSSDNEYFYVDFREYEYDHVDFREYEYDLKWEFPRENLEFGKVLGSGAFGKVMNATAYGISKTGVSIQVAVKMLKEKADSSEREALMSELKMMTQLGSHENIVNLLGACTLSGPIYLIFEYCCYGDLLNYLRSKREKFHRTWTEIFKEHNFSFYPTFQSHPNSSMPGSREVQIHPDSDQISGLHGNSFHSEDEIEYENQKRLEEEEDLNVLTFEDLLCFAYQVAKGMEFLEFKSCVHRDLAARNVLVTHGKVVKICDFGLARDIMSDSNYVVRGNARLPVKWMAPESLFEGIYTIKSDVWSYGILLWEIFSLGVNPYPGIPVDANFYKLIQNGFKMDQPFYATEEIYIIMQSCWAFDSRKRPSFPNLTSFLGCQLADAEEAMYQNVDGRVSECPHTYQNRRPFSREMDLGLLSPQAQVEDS
Protocol: Measurement of Inhibition of the Tyrosine Kinase Activity of the FLT3 Receptor
The inhibitory effect of the compounds according to the invention towards the tyrosine kinase activity of the FLT3 receptor was evaluated on an MV4-11 cell line, which line is established from a leukaemia of constitutively active AML type bearing an FLT3ITD mutant. The inhibitory activity is correlated to the inhibition of cell growth, according to the protocols described by Spiekermann, K. et al., Blood, 2003, 101, (4) 1494-1504 and O'Farrell, A.-M. et al., Blood, 2003, 101, (9) 3597-3605.
(§1) MV4-11 cells are washed with PBS buffer and inoculated in 96-well plates, at a density of 1×10^5 cells/ml (100 μL per well), in RPMI 1640 containing 10% FCS, in the presence or absence of the test compounds. After incubation for 72 hours, the viable cells are quantified by measuring the cellular ATP by means of the CellTiter-Glo® kit (Promega, Cat G7571). The cells are treated according to the instructions given by the kit manufacturer, and the luminescence is measured using a Luminoskan (Ascent, Labsystem) with the following parameters: measurement: single; integration time: 1000 ms, lag time: 5 s.
The inhibitory activity with respect to the FLT3 receptor is given by the concentration that inhibits 50% of the proliferation of the MV4-11 cells.

[2] = target: fusion protein FIP1L1-PDGF-Rα (EOL-1 cell line) (Homo sapiens, UniProt P16234); assay: Inhibition of PDGF alpha receptor tyrosine kinase activity: proliferation of EOL-1 cells (CellTiter-Glo, 72 h); format: cell-based
Sequence of fusion protein FIP1L1-PDGF-Rα (EOL-1 cell line) (P16234 579-1089, change not shown): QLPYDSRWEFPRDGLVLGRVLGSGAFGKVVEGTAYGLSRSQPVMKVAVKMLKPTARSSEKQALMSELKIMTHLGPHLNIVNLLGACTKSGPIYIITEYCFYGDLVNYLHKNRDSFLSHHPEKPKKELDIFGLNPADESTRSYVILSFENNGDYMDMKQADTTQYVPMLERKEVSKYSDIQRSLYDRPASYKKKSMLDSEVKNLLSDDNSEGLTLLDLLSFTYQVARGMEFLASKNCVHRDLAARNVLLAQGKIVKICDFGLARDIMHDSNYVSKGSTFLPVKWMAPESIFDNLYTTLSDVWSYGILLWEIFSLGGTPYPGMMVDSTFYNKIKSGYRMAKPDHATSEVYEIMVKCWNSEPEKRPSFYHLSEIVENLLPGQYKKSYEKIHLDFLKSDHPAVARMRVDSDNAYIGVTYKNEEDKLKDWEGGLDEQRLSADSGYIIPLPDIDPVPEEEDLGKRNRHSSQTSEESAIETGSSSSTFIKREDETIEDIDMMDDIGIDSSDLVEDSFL
Sequence of fusion protein FIP1L1-PDGF-Rα (EOL-1 cell line) (Q6UN15 1-339 partner): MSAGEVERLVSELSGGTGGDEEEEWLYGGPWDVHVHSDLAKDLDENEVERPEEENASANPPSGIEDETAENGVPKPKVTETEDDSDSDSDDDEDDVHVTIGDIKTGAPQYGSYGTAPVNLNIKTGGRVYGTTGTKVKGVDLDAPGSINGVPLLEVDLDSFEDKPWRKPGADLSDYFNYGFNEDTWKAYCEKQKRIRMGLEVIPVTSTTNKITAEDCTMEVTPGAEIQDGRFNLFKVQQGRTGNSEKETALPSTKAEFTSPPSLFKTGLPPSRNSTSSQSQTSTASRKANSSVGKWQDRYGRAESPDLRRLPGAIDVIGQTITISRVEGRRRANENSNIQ
Protocol: Measurement of Inhibition of the Tyrosine Kinase Activity of the PDGF Alpha Receptor: The inhibitory effect of the compounds according to the invention towards the tyrosine kinase activity of the PDGF alpha receptor was evaluated on the EOL-1 cell line, which line is established from a leukaemia of constitutively active chronic eosinophilic leukaemia (CEL) type. The EOL-1 line has been described as expressing the fusion protein FIP1L1-PDGF-Rα and is sensitive to kinase inhibitors in proliferation tests (Cools J. et al., Blood 2004, 103, […]). The inhibitory activity is correlated to the inhibition of cell growth. […] After incubation for 72 hours, the viable cells are quantified by measuring the cellular ATP by means of the CellTiter-Glo® kit (Promega, Cat G7571). The cells are treated according to the instructions given by the kit manufacturer, and the luminescence is measured using a Luminoskan (Ascent, Labsystem) with the following parameters: measurement: single; integration time: 1000 ms, lag time: 5 s. It is thus seen that the compounds according to the invention have inhibitory activity on the tyrosine kinase activity of PDGF-Rα. This activity is given by the concentration that inhibits 50% of the proliferation of the EOL-1 cells.

[3] = target: T2, fusion protein Tel/PDGF-Rβ (BaF3 Tel/PDGF cells) (Homo sapiens, UniProt P09619); assay: Inhibition of PDGF-Rβ tyrosine kinase activity: proliferation of BaF3 Tel/PDGF cells (CellTiter-Glo, 72 h); format: cell-based, murine; settings: 72 hours incubation, read-out: IC50 (concentration that inhibits 50% of the proliferation of the BaF3 Tel/PDGF cells)
T2 construct: the transmembrane and intracellular part of the PDGF-Rβ receptor; N-terminal part of the Tel transcription factor (ETV6); expressed in transfected cells; host or cells: murine haematopoietic cell line BaF/3; the other entry of the earlier key: ETV6 (P41212, Transcription factor ETV6)
T2 sequence (P09619 with tags, fused parts or gaps): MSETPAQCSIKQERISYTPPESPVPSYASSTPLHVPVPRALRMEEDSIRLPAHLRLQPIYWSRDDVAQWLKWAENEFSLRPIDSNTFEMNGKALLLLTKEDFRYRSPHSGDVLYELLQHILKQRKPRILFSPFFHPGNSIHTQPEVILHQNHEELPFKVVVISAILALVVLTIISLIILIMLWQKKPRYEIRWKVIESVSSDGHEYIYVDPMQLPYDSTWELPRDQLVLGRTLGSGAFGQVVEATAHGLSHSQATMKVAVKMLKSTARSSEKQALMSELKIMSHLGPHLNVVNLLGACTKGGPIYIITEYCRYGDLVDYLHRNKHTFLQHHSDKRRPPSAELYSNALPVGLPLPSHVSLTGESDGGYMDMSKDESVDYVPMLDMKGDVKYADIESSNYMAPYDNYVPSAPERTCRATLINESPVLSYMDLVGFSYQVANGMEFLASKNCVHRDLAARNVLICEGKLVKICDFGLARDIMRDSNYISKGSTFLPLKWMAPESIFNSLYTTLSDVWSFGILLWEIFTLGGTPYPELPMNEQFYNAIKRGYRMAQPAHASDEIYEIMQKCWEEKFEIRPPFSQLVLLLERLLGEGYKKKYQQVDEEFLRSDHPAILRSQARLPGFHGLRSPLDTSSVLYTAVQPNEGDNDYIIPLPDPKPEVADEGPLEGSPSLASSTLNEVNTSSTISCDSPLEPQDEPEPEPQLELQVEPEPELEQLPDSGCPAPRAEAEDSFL
Protocol: Measurement of Inhibition of the Tyrosine Kinase Activity of the PDGF Beta (PDGF-Rβ) (Baf-3 tel/PDGFIRβ) Receptor:
This test consists in evaluating the effects of the compounds on the tyrosine kinase activity of the PDGF beta receptor.
The inhibitory effect of the compounds according to the invention towards the tyrosine kinase activity of the PDGF-R receptor was evaluated on the murine haematopoietic cell line BaF/3 transfected with a plasmid coding for the fusion protein Tel/PDGF-Rβ. This fusion protein is found in chronic myelomonocytic myeloid leukaemias (CMML). It comprises the N-terminal part of the Tel transcription factor and the transmembrane and intracellular part of the PDGF-Rβ receptor. This fusion protein is present in dimerized form (presence of an oligomerization domain in the N-terminal part of Tel) and, as a result, leads to constitutive activity of the kinase domain of PDGF-Rβ. This line BaF3 Tel/PDGF has been described in the literature several times and especially, in detailed manner, in the article by M. Carroll et al., PNAS, 1996, 93, 14845-14850.
as §1, with “The BaF3 Tel/PDGF” for “MV4-11”, “phosphate” for “PBS”, “5×10^4” for “1×10^5”, “[…]” for “μL”
It is thus seen that the compounds according to the invention have inhibitory activity on the tyrosine kinase activity of PDGF-Rβ. This activity is given by the concentration that inhibits 50% of the proliferation of the BaF3 Tel/PDGF cells (IC50).

[4] = read-out: IC50 (concentration that inhibits 50% of the proliferation of the EOL-1 cells), 72 hours incubation
[5] = 72 hours incubation, read-out: IC50 (concentration that inhibits 50% of the proliferation of the EOL-1 cells)

Row | Compound | IC50 [1] | melting point | IC50 [2, 4] | IC50 [3] | IC50 [2, 5]
1 | CCn1c(N)c(C(=O)NC)c(=O)c2ccc(-c3ccc(CC(=O)Nc4cccnc4)cc3)nc21 [compound 3, 2-amino-1-ethyl-N-methyl-4-oxo-7-{4-[2-oxo-2-(pyrid-3-ylamino)ethyl]-phenyl}-1,4-dihydro-1,8-naphthyridine-3-carboxamide] | 330 nM | – | – | – | –
2 | CCn1c(N)c(C(=O)NC)c(=O)c2ccc(-c3ccc(CC(=O)Nc4ccccn4)cc3)nc21 [compound 4, 2-amino-1-ethyl-N-methyl-4-oxo-7-{4-[2-oxo-2-(pyrid-2-ylamino)ethyl]-phenyl}-1,4-dihydro-1,8-naphthyridine-3-carboxamide] | 210 nM | – | – | – | –
3 | CCn1c(N)c(C(=O)NC)c(=O)c2ccc(-c3ccc(CC(=O)Nc4ccccc4Cl)cc3)nc21 [compound 5, 2-amino-7-(4-{2-[(2-chlorophenyl)amino]-2-oxoethyl}phenyl)-1-ethyl-N-methyl-4-oxo-1,4-dihydro-1,8-naphthyridine-3-carboxamide] | 190 nM | > 260 °C | 1.6 nM | – | –
4 | CCn1c(N)c(C(=O)NC)c(=O)c2ccc(-c3ccc(CC(=O)Nc4cc(F)cc(F)c4)cc3)nc21 [compound 6, 2-amino-7-(4-{2-[(3,5-difluorophenyl)amino]-2-oxoethyl}phenyl)-1-ethyl-N-methyl-4-oxo-1,4-dihydro-1,8-naphthyridine-3-carboxamide] | 100 nM | > 260 °C | 0.57 nM | 11 nM | –
5 | CCN1CCC[C@@H]1CNC(=O)Cc1ccc(-c2ccc3c(=O)c(C(=O)NC)c(N)n(CC)c3n2)cc1 [compound 14, 2-amino-1-ethyl-7-{4-[2-({[(2R)-1-ethylpyrrolidin-2-yl]methyl}amino)-2-oxoethyl]phenyl}-N-methyl-4-oxo-1,4-dihydro-1,8-naphthyridine-3-carboxamide] | 340 nM | 270 °C | – | 11 nM | –
6 | CCn1c(N)c(C(=O)NC)c(=O)c2ccc(-c3ccc(CC(=O)Nc4ccncn4)cc3)nc21 [compound 16, 2-amino-1-ethyl-N-methyl-4-oxo-7-{4-[2-oxo-2-(pyrimidin-4-ylamino)-ethyl]phenyl}-1,4-dihydro-1,8-naphthyridine-3-carboxamide] | 182 nM | > 280 °C | – | – | –
7 | CCn1c(N)c(C(=O)NC)c(=O)c2ccc(-c3ccc(CC(=O)Nc4ccccn4)cn3)nc21 [compound 19, 2-amino-1-ethyl-N-methyl-4-oxo-7-{5-[2-oxo-2-(pyrid-2-ylamino)-ethyl]pyrid-2-yl}-1,4-dihydro-1,8-naphthyridine-3-carboxamide] | 100 nM | – | 0.4 nM | 27 nM | –
8 | CCN1CCOCC1CNC(=O)Cc1ccc(-c2ccc3c(=O)c(C(=O)NC)c(N)n(CC)c3n2)cc1 (stereo not shown) [compound 22, 2-amino-1-ethyl-7-[4-(2-{[(4-ethylmorpholin-3-yl)methyl]amino}-2-oxoethyl)phenyl]-N-methyl-4-oxo-1,4-dihydro-1,8-naphthyridine-3-carboxamide] | 130 nM | – | – | 0.07 nM | –
9 | CCn1c(N)c(C(=O)NC)c(=O)c2ccc(-c3ccc(CC(=O)Nc4nccs4)cc3)nc21 [compound 35, 2-amino-1-ethyl-N-methyl-4-oxo-7-{4-[2-oxo-2-(1,3-thiazol-2-ylamino)-ethyl]phenyl}-1,4-dihydro-1,8-naphthyridine-3-carboxamide] | 83 nM | 303 °C | – | 3.7 nM | 0.8 nM
10 | CCN1CCCC1CNC(=O)Cc1csc(-c2ccc3c(=O)c(C(=O)NC)c(N)n(CC)c3n2)n1 (stereo not shown) [compound 43, 2-amino-1-ethyl-7-[4-(2-{[(1-ethylpyrrolidin-2-yl)methyl]amino}-2-oxoethyl)-1,3-thiazol-2-yl]-N-methyl-4-oxo-1,4-dihydro-1,8-naphthyridine-3-carboxamide] | – | – | – | – | 29.7 nM
11 | CCN1CCCC1CNC(=O)Cc1ccc(-c2ccc3c(=O)c(C(=O)NC)c(N)n(C4CCCC4)c3n2)cc1 (stereo not shown) [compound 50, 2-amino-1-cyclopentyl-7-[4-(2-{[(1-ethylpyrrolidin-2-yl)methyl]amino}-2-oxoethyl)phenyl]-N-methyl-4-oxo-1,4-dihydro-1,8-naphthyridine-3-carboxamide] | – | 222 °C | 3.2 nM | – | –
12 | CCN1CCCC1CNC(=O)CCCCc1ccc(-c2ccc3c(=O)c(C(=O)NC)c(N)n(CC)c3n2)cc1 (stereo not shown) [compound 51, 2-amino-1-ethyl-7-[4-(5-{[(1-ethylpyrrolidin-2-yl)methyl]amino}-5-oxopentyl)phenyl]-N-methyl-4-oxo-1,4-dihydro-1,8-naphthyridine-3-carboxamide] | – | 180 °C | – | – | 92.7 nM
